Key:
B6C3F1 Mice = assay: LD50 determination in B6C3F1 mice; assay type: in vivo; design: 1/10 LD50: unit: mg/kg/inj
Text: Summary of LD50 Determination with a conjugate of L-penicillamine and salicylaldehyde (L-SAPA), a conjugate of L-penicillamine and benzaldehyde (L-BAPA), a conjugate of L-penicillamine and pyruvic aldehyde (L-PAPA) and a conjugate of L-penicillamine and glutaric dialdehyde (L-GAPA) in B6C3F1 Mice.

Human Melanoma cells 624 = assay: Survival of nude mice inoculated with human melanoma; assay type: in vivo, athymic nude mice; settings: for survival of treated group: nude mice, 400 rads, Human Melanoma cells 624, 100 mg/kg I.P. every day, six days a week, followed up for 120 days, control: ten out of ten died
Protocol: In order to examine the survival rate of athymic nude mice, inoculated intravenously with tumors, one group of the inoculated mice was treated with BA-GGCI, and a second group of the inoculated mice were treated with placebo, and the effects of treatment with BA-GGCI and placebo were compared.
Two subgroups of nude mice were examined: a control group and an experimental group. The groups included a total of twenty athymic nude mice (ten control and ten experimental), each irradiated with 400 rads of radiation and inoculated with Human Melanoma cells 624 at 3.0×10,000,000 cells per mouse. Treatment of the experimental group with racemic BA-GGCI commenced at 24 hours after the inoculation. The treatment was administered intraperitoneally (I.P.) at a dose of 100 mg/kg in 2 cc of saline every day, six days a week. The control group received placebo (2 cc saline IP), every day, six days a week.
The subjects were followed up for 120 days.

lung CA CRL5891 = assay: Survival of nude mice inoculated with human lung cancer; assay type: in vivo, athymic nude mice; settings: for survival of treated group: nude male mice, 400 rads, lung CA CRL5891, 100 mg/kg I.P. every day, six days a week, followed up for 120 days, control: eight of ten died
Protocol: In order to examine survival of athymic nude mice inoculated intravenously with tumors, one group of the inoculated mice was treated with racemic BA-GGCI, and a second group of the inoculated mice were treated with placebo, and the effects of treatment with BA-GGCI and placebo were compared.
Two subgroups of nude male mice where examined: A control group and an experimental group. The groups included twenty athymic nude mice (ten control and ten experimental) subjects, each irradiated with 400 rads of radiation and inoculated with lung CA CRL5891 at 3×10,000,000 cells per mouse. Interventional treatment was identical to the first study as above.
The subjects were followed up for 120 days. In the Control group, eight of ten subjects died. Two of the surviving mice developed a large tumor.

[1] = test system: patients with advanced prostate cancer; assay: Compassionate use treatment of patients with advanced prostate cancer; assay type: in vivo, human
Protocol: Two patients with advanced prostate cancer were treated under a compassionate use program with an exemplary GGCI
Racemic BA-GGCI was administered to two human subjects who were receiving hormonal therapy for 12 and 14 months respectively.
At the onset of the GGCI treatment, both patients were bedridden with PSA (Prostate Specific Antigen) values of 340 and 180 ng/mL respectively. Both subjects presented with multiple bone metastases, and agonizing pains. The GGCI treatment protocol comprised 600 mg of GGCI capsule 3 times/day (formulated for human based on less then 5% of the LD50 toxicity on mice).

[2] = test system: human prostate tumor cell line; assay: Nude mouse model inoculated with human prostate tumor cell line; racemic, L- and D-GGCI compared; assay type: in vivo, nude mice; settings: nude mice inoculated intravenously with human prostate tumor cell line; treatment as in Example 2; response monitored by [PSA]
Protocol: Relative activities of the exemplary enantiomeric GGCI compounds of this invention were compared. Conjugates of benzaldehyde, salicylaldehyde and para-methoxybenzaldehyde were prepared, using either enantiomeric L- or D-penicillamine as the second reactant. The efficacy of racemic BA-GGCI, racemic SA-GGCI and racemic PMB-GGCI in the treatment of human prostate cancer was tested using the nude mouse model as in Example 2, except that the nude mice were inoculated intravenously with a human prostate tumor cell line. One group of the inoculated mice was treated with the racemic BA-GGCI and a control group of the inoculated mice was treated with placebo, and the effects of treatment with GGCI and placebo were compared. Response to treatment was monitored by changes in [PSA].
The exemplary L- and D-enantiomer BA-GGCIs were prepared in accordance with synthetic scheme of FIG. 1 using L-penicillamine.

[3] = LD50 toxicity study on Balb C mice; assay type: in vivo; settings: mouse, in vivo
Protocol: (§1) LD50 data was measured, and exemplary gamma-glutamyl cycle inhibitor's toxicity study was conducted on Balb C Mice. A conjugate of L-penicillamine and methyl glyoxal (MGPA) was adminstered at about 4500 mg/kg ip, 5000 mg/kg oral. A conjugate of L-penicillamine and para-methoxyphenyl (PMPA) was administered at 5250 mg/kg ip, 5500 mg/kg oral; and a conjugate of L-penicillamine and citronellal (CNPA) was administered at 3250 mg/kg ip, 4500 mg/kg oral.

tumor = assay: Anti-cancer activity of (L) versus (D) conformation compounds in animal models and compassionate use (summary statement); assay type: in vivo; settings: animal models and compassionate use treatment of human subjects
Text: However, in contrast to D-penicillamine, the L-penicillamine stereoisomer is toxic, and has not been approved as a drug. […] Moreover, when the inventors compared the relative activities, the (L) conformation compounds of this disclosure appeared to be at least 2× as active as the corresponding racemate, due to the improved stereospecificity in the enzymatic catalysis of 5-oxoproline by 5 oxoprolinase.

Balb C Mice = assay: LD50 toxicity study on Balb C mice; assay type: in vivo
Protocol: as §1

[4] = subject #1, 600 mg capsule 3 times/day
[5] = subject #2, 600 mg capsule 3 times/day

CC1(C)SC(CCCC=O)N[C@H]1C(=O)O (stereo partly drawn) [L-GAPA]
1/10 LD50 (B6C3F1 Mice; Schedule Day 1, Route ip): 375 | Calculated LD50 mg/kg/inj. (B6C3F1 Mice; Schedule Day 1, Route ip): 3749 mg/kg/inj. | 1/10 LD50 (B6C3F1 Mice; Schedule Day 1, Route oral): 500 | Calculated LD50 mg/kg/inj. (B6C3F1 Mice; Schedule Day 1, Route oral): >5000 mg/kg/inj. | 1/10 LD50 (B6C3F1 Mice; Schedule Day 1-5, Route ip): 169 | Calculated LD50 mg/kg/inj. (B6C3F1 Mice; Schedule Day 1-5, Route ip): 1690 mg/kg/inj. | 1/10 LD50 (B6C3F1 Mice; Schedule Day 1-5, Route oral): 500 | Calculated LD50 mg/kg/inj. (B6C3F1 Mice; Schedule Day 1-5, Route oral): >5000 mg/kg/inj.

CC1(C)SC(c2ccccc2)NC1C(=O)O (racemic) [racemic BA-GGCI]
tumor development in treated group (Human Melanoma cells 624; Human Melanoma cells 624 nude mice, 100 mg/kg I.P., after stopping the treatment): Two of the subjects developed small tumors after stopping the treatment | survival of treated group (Human Melanoma cells 624): ten out of ten subjects in the treated group were all alive | detectable tumor in treated group (lung CA CRL5891; lung CA CRL5891 nude mice, 100 mg/kg I.P., 120 days): none with detectable tumor | survival of treated group (lung CA CRL5891): all mice remained alive | PSA value after treatment (dropped from 340) [1, 4]: 18 units | time to return to regular activities [1, 4]: within a month | time until pain level subsided [1, 4]: ≤ 10 days | PSA level after continued drop ([1]; subject #1, 600 mg capsule 3 times/day, later): 5 units | time subject felt normal ([1]; subject #1, before they eventually passed away): 28 months | bone CAT scan ([1]; subject #1, multiple bone metastases at onset): substantial remission | survival after initiation of the treatment (still alive, feeling well) ([1]; subject #2): ≥ 36 months | PSA after treatment (180 ng/mL at onset) [1, 5]: 16 units | time to return to normal activities [1, 5]: 2-3 weeks | time until pains subsided [1, 5]: 7 days | survival rate versus control group [2]: significantly higher survival rate than the control group

COc1ccc(C2N[C@@H](C(=O)O)C(C)(C)S2)cc1 (mixture of isomers) [racemic PMB-GGCI, 2-imino-3-p-methoxybenzyl-4 sulfanyl-5 dimethyl 1-carboxylic acid]
survival of treated group (Human Melanoma cells 624): results similar to those obtained with racemic BA-GGCI | survival of treated group (lung CA CRL5891): results similar to those obtained with racemic BA-GGCI

COc1ccc(C2N[C@@H](C(=O)O)C(C)(C)S2)cc1 (stereo partly drawn) [PMPA]
LD50 ([3]; 5250 mg/kg, ip): 5250 mg/kg | LD50 ([3]; 5500 mg/kg, oral): 5500 mg/kg | anti-tumor / anti-cancer activity (tumor): potent anti-tumor activity

CC(C)=CCCC(C)CC1NC(C(=O)O)C(C)(C)S1 (stereo not drawn) [CNPA]
LD50 (Balb C Mice; ip): 3250 mg/kg | LD50 (Balb C Mice; oral): 4500 mg/kg

— patent publication US12686667B2, “Methods and compositions for gamma-glutamyl cycle modulation” (CANCER RESEARCH TECHNOLOGIES LLC, priority 2013, dated 2026)
